# Data reported in ChEMBL document CHEMBL5346903, “Discovery of novel and bioavailable histone deacetylases and cyclin-dependent kinases dual inhibitor to impair the stemness of leukemia cells” (Eur J Med Chem, 2023).
# Tested on: Kasumi 1
# Test: Antiproliferative activity against human Kasumi 1 cells incubated for 72 hrs by CCK8 assay
# Assay type: functional, cell-based
# Details: Kasumi 1, 72 h
row,Structure (SMILES),IC50 [nM]
1,O=C(CCN1CCC(NC(=O)c2n[nH]cc2NC(=O)c2c(Cl)cccc2Cl)CC1)NO,1380
2,O=C(CCCCCNC(=O)c1n[nH]cc1NC(=O)c1c(Cl)cccc1Cl)NO,> 10000
3,O=C(CN1CCC(NC(=O)c2n[nH]cc2NC(=O)c2c(Cl)cccc2Cl)CC1)NO,1540
4,O=C(CCCCN1CCC(NC(=O)c2n[nH]cc2NC(=O)c2c(F)cccc2F)CC1)NO,6440
5,O=C(CCCNC(=O)c1ccc(NC(=O)c2n[nH]cc2NC(=O)c2c(Cl)cccc2Cl)cc1)NO,> 10000
6,O=C(CCCCNC(=O)c1ccc(NC(=O)c2n[nH]cc2NC(=O)c2c(Cl)cccc2Cl)cc1)NO,> 10000
7,O=C(CNC(=O)c1n[nH]cc1NC(=O)c1c(Cl)cccc1Cl)NO,> 10000
8,Cc1cc(N)c(NC(=O)c2ccc(NC(=O)c3n[nH]cc3NC(=O)c3c(Cl)cccc3Cl)cc2)cc1C,930
9,O=C(CCCCCN1CCC(NC(=O)c2n[nH]cc2NC(=O)c2c(Cl)cccc2Cl)CC1)NO,6190
10,Nc1cc(Br)c(Br)cc1NC(=O)c1ccc(NC(=O)c2n[nH]cc2NC(=O)c2c(F)cccc2F)cc1,> 10000
11,O=C(CCCCN1CCC(NC(=O)c2n[nH]cc2NC(=O)c2c(Cl)cccc2Cl)CC1)NO,3720
12,O=C(CCCCCNC(=O)c1ccc(NC(=O)c2n[nH]cc2NC(=O)c2c(F)cccc2F)cc1)NO,> 10000
13,O=C(CCCCNC(=O)c1ccc(NC(=O)c2n[nH]cc2NC(=O)c2c(F)cccc2F)cc1)NO,> 10000
14,O=C(CCCCCCN1CCC(NC(=O)c2n[nH]cc2NC(=O)c2c(F)cccc2F)CC1)NO,1960
15,Nc1cc(Cl)c(Cl)cc1NC(=O)c1ccc(NC(=O)c2n[nH]cc2NC(=O)c2c(Cl)cccc2Cl)cc1,8420
16,O=C(CCNC(=O)c1ccc(NC(=O)c2n[nH]cc2NC(=O)c2c(F)cccc2F)cc1)NO,8810
17,O=C(CCCN1CCC(NC(=O)c2n[nH]cc2NC(=O)c2c(F)cccc2F)CC1)NO,> 10000

# Target: Cyclin-dependent kinase 9 (Homo sapiens, UniProt P50750)
# Test: Inhibition of CDK9 (unknown origin) preincubated for 20 mins followed by [gamma-33P]ATP addition measured after 120 mins in presence of ATP by Hot-SpotSM kinase assay
# Details: not given
# Cyclin-dependent kinase 9, sequence (P50750 whole entry): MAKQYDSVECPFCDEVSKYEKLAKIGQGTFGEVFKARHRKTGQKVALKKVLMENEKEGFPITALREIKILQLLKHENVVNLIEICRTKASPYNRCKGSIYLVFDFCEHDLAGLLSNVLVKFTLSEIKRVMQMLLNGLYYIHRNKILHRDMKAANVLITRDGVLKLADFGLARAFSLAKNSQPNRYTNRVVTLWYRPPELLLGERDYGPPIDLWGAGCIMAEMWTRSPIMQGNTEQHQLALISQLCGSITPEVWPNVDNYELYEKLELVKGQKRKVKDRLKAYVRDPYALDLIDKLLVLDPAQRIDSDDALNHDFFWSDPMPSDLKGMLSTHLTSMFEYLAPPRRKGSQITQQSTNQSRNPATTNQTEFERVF
row,IC50 [nM],Structure (SMILES)
1,< 100,O=C(CCN1CCC(NC(=O)c2n[nH]cc2NC(=O)c2c(Cl)cccc2Cl)CC1)NO
2,< 100,O=C(CCCCCNC(=O)c1n[nH]cc1NC(=O)c1c(Cl)cccc1Cl)NO
3,< 100,O=C(CN1CCC(NC(=O)c2n[nH]cc2NC(=O)c2c(Cl)cccc2Cl)CC1)NO
4,< 100,O=C(CCCCN1CCC(NC(=O)c2n[nH]cc2NC(=O)c2c(F)cccc2F)CC1)NO
5,< 100,O=C(CCCNC(=O)c1ccc(NC(=O)c2n[nH]cc2NC(=O)c2c(Cl)cccc2Cl)cc1)NO
6,< 100,O=C(CCCCNC(=O)c1ccc(NC(=O)c2n[nH]cc2NC(=O)c2c(Cl)cccc2Cl)cc1)NO
7,< 100,O=C(CNC(=O)c1n[nH]cc1NC(=O)c1c(Cl)cccc1Cl)NO
8,< 100,Cc1cc(N)c(NC(=O)c2ccc(NC(=O)c3n[nH]cc3NC(=O)c3c(Cl)cccc3Cl)cc2)cc1C
9,< 100,O=C(CCCCCN1CCC(NC(=O)c2n[nH]cc2NC(=O)c2c(Cl)cccc2Cl)CC1)NO
10,< 100,Nc1cc(Br)c(Br)cc1NC(=O)c1ccc(NC(=O)c2n[nH]cc2NC(=O)c2c(F)cccc2F)cc1
11,< 100,O=C(CCCCN1CCC(NC(=O)c2n[nH]cc2NC(=O)c2c(Cl)cccc2Cl)CC1)NO
12,< 100,O=C(CCCCCNC(=O)c1ccc(NC(=O)c2n[nH]cc2NC(=O)c2c(F)cccc2F)cc1)NO
13,< 100,O=C(CCCCNC(=O)c1ccc(NC(=O)c2n[nH]cc2NC(=O)c2c(F)cccc2F)cc1)NO
14,< 100,O=C(CCCCCCN1CCC(NC(=O)c2n[nH]cc2NC(=O)c2c(F)cccc2F)CC1)NO
15,< 100,Nc1cc(Cl)c(Cl)cc1NC(=O)c1ccc(NC(=O)c2n[nH]cc2NC(=O)c2c(Cl)cccc2Cl)cc1
16,< 100,O=C(CCNC(=O)c1ccc(NC(=O)c2n[nH]cc2NC(=O)c2c(F)cccc2F)cc1)NO
17,< 100,O=C(CCCN1CCC(NC(=O)c2n[nH]cc2NC(=O)c2c(F)cccc2F)CC1)NO

# Tested on: U-937
# Test: Antiproliferative activity against human U-937 cells incubated for 72 hrs by CCK8 assay
# Assay type: functional, cell-based
# Details: U-937, 72 h
row,IC50 [nM],Structure (SMILES)
1,910,O=C(CCN1CCC(NC(=O)c2n[nH]cc2NC(=O)c2c(Cl)cccc2Cl)CC1)NO
2,> 10000,O=C(CCCCCNC(=O)c1n[nH]cc1NC(=O)c1c(Cl)cccc1Cl)NO
3,940,O=C(CN1CCC(NC(=O)c2n[nH]cc2NC(=O)c2c(Cl)cccc2Cl)CC1)NO
4,7340,O=C(CCCCN1CCC(NC(=O)c2n[nH]cc2NC(=O)c2c(F)cccc2F)CC1)NO
5,> 10000,O=C(CCCNC(=O)c1ccc(NC(=O)c2n[nH]cc2NC(=O)c2c(Cl)cccc2Cl)cc1)NO
6,8520,O=C(CCCCNC(=O)c1ccc(NC(=O)c2n[nH]cc2NC(=O)c2c(Cl)cccc2Cl)cc1)NO
7,> 10000,O=C(CNC(=O)c1n[nH]cc1NC(=O)c1c(Cl)cccc1Cl)NO
8,1140,Cc1cc(N)c(NC(=O)c2ccc(NC(=O)c3n[nH]cc3NC(=O)c3c(Cl)cccc3Cl)cc2)cc1C
9,1840,O=C(CCCCCN1CCC(NC(=O)c2n[nH]cc2NC(=O)c2c(Cl)cccc2Cl)CC1)NO
10,> 10000,Nc1cc(Br)c(Br)cc1NC(=O)c1ccc(NC(=O)c2n[nH]cc2NC(=O)c2c(F)cccc2F)cc1
11,1830,O=C(CCCCN1CCC(NC(=O)c2n[nH]cc2NC(=O)c2c(Cl)cccc2Cl)CC1)NO
12,> 10000,O=C(CCCCCNC(=O)c1ccc(NC(=O)c2n[nH]cc2NC(=O)c2c(F)cccc2F)cc1)NO
13,> 10000,O=C(CCCCNC(=O)c1ccc(NC(=O)c2n[nH]cc2NC(=O)c2c(F)cccc2F)cc1)NO
14,1440,O=C(CCCCCCN1CCC(NC(=O)c2n[nH]cc2NC(=O)c2c(F)cccc2F)CC1)NO
15,5920,Nc1cc(Cl)c(Cl)cc1NC(=O)c1ccc(NC(=O)c2n[nH]cc2NC(=O)c2c(Cl)cccc2Cl)cc1
16,> 10000,O=C(CCNC(=O)c1ccc(NC(=O)c2n[nH]cc2NC(=O)c2c(F)cccc2F)cc1)NO
17,> 10000,O=C(CCCN1CCC(NC(=O)c2n[nH]cc2NC(=O)c2c(F)cccc2F)CC1)NO

# Tested on: HL-60
# Test: Antiproliferative activity against human HL-60 cells incubated for 72 hrs by CCK8 assay
# Assay type: functional, cell-based
# Details: HL-60, 72 h
row,IC50 [nM],Structure (SMILES)
1,1540,O=C(CCN1CCC(NC(=O)c2n[nH]cc2NC(=O)c2c(Cl)cccc2Cl)CC1)NO
2,> 10000,O=C(CCCCCNC(=O)c1n[nH]cc1NC(=O)c1c(Cl)cccc1Cl)NO
3,1160,O=C(CN1CCC(NC(=O)c2n[nH]cc2NC(=O)c2c(Cl)cccc2Cl)CC1)NO
4,1770,O=C(CCCCN1CCC(NC(=O)c2n[nH]cc2NC(=O)c2c(F)cccc2F)CC1)NO
5,> 10000,O=C(CCCNC(=O)c1ccc(NC(=O)c2n[nH]cc2NC(=O)c2c(Cl)cccc2Cl)cc1)NO
6,> 10000,O=C(CCCCNC(=O)c1ccc(NC(=O)c2n[nH]cc2NC(=O)c2c(Cl)cccc2Cl)cc1)NO
7,> 10000,O=C(CNC(=O)c1n[nH]cc1NC(=O)c1c(Cl)cccc1Cl)NO
8,1020,Cc1cc(N)c(NC(=O)c2ccc(NC(=O)c3n[nH]cc3NC(=O)c3c(Cl)cccc3Cl)cc2)cc1C
9,1750,O=C(CCCCCN1CCC(NC(=O)c2n[nH]cc2NC(=O)c2c(Cl)cccc2Cl)CC1)NO
10,> 10000,Nc1cc(Br)c(Br)cc1NC(=O)c1ccc(NC(=O)c2n[nH]cc2NC(=O)c2c(F)cccc2F)cc1
11,1100,O=C(CCCCN1CCC(NC(=O)c2n[nH]cc2NC(=O)c2c(Cl)cccc2Cl)CC1)NO
12,> 10000,O=C(CCCCCNC(=O)c1ccc(NC(=O)c2n[nH]cc2NC(=O)c2c(F)cccc2F)cc1)NO
13,> 10000,O=C(CCCCNC(=O)c1ccc(NC(=O)c2n[nH]cc2NC(=O)c2c(F)cccc2F)cc1)NO
14,1010,O=C(CCCCCCN1CCC(NC(=O)c2n[nH]cc2NC(=O)c2c(F)cccc2F)CC1)NO
15,9760,Nc1cc(Cl)c(Cl)cc1NC(=O)c1ccc(NC(=O)c2n[nH]cc2NC(=O)c2c(Cl)cccc2Cl)cc1
16,> 10000,O=C(CCNC(=O)c1ccc(NC(=O)c2n[nH]cc2NC(=O)c2c(F)cccc2F)cc1)NO
17,2550,O=C(CCCN1CCC(NC(=O)c2n[nH]cc2NC(=O)c2c(F)cccc2F)CC1)NO

# Tested on: not listed separately
# Test: Antiproliferative activity against human SKNO-1 cells incubated for 72 hrs by CCK8 assay
# Assay type: functional, cell-based
# Details: SKNO-1, 72 h
row,Structure (SMILES),IC50 [nM]
1,O=C(CCN1CCC(NC(=O)c2n[nH]cc2NC(=O)c2c(Cl)cccc2Cl)CC1)NO,1670
2,O=C(CCCCCNC(=O)c1n[nH]cc1NC(=O)c1c(Cl)cccc1Cl)NO,> 10000
3,O=C(CN1CCC(NC(=O)c2n[nH]cc2NC(=O)c2c(Cl)cccc2Cl)CC1)NO,1540
4,O=C(CCCCN1CCC(NC(=O)c2n[nH]cc2NC(=O)c2c(F)cccc2F)CC1)NO,6530
5,O=C(CCCNC(=O)c1ccc(NC(=O)c2n[nH]cc2NC(=O)c2c(Cl)cccc2Cl)cc1)NO,> 10000
6,O=C(CCCCNC(=O)c1ccc(NC(=O)c2n[nH]cc2NC(=O)c2c(Cl)cccc2Cl)cc1)NO,> 10000
7,O=C(CNC(=O)c1n[nH]cc1NC(=O)c1c(Cl)cccc1Cl)NO,> 10000
8,Cc1cc(N)c(NC(=O)c2ccc(NC(=O)c3n[nH]cc3NC(=O)c3c(Cl)cccc3Cl)cc2)cc1C,2560
9,O=C(CCCCCN1CCC(NC(=O)c2n[nH]cc2NC(=O)c2c(Cl)cccc2Cl)CC1)NO,3020
10,Nc1cc(Br)c(Br)cc1NC(=O)c1ccc(NC(=O)c2n[nH]cc2NC(=O)c2c(F)cccc2F)cc1,> 10000
11,O=C(CCCCN1CCC(NC(=O)c2n[nH]cc2NC(=O)c2c(Cl)cccc2Cl)CC1)NO,2320
12,O=C(CCCCCNC(=O)c1ccc(NC(=O)c2n[nH]cc2NC(=O)c2c(F)cccc2F)cc1)NO,> 10000
13,O=C(CCCCNC(=O)c1ccc(NC(=O)c2n[nH]cc2NC(=O)c2c(F)cccc2F)cc1)NO,> 10000
14,O=C(CCCCCCN1CCC(NC(=O)c2n[nH]cc2NC(=O)c2c(F)cccc2F)CC1)NO,1080
15,Nc1cc(Cl)c(Cl)cc1NC(=O)c1ccc(NC(=O)c2n[nH]cc2NC(=O)c2c(Cl)cccc2Cl)cc1,5540
16,O=C(CCNC(=O)c1ccc(NC(=O)c2n[nH]cc2NC(=O)c2c(F)cccc2F)cc1)NO,5970
17,O=C(CCCN1CCC(NC(=O)c2n[nH]cc2NC(=O)c2c(F)cccc2F)CC1)NO,6310
